Key:
BALB/C3T3 cells [1] = assay: Adsorption of FGF to containers of different kinds, with or without CHAPS (FGF activity after storage); format: physicochemical, mouse; details: addition of 0.1% CHAPS; FGF 0.5 µg/ml PBS; 4°C for 2 days
Procedure: (§1) Next, examples of the present invention are shown. DNA synthesis activity or FGF activity of samples was determined by the method shown in Example 1 and expressed by cpm (counts per minute) x 10⁻⁴/well/3h.
(§2) BALB/C3T3 cells, a kind of fibroblasts established from a mouse fetus were suspended in 3% bovine serum-containing DME medium (DME-3% CS) at a concentration of 2 x 10⁴/ml. One milliliter of the suspension was taken and cultured at 37°C for 5 hours on a 24 well tissue culture dish. Then, the medium was replaced by 1 ml of DME-1% CS followed by culturing at 37°C for 48 hours. A sample (2 to 20 µl) was added thereto, followed by culturing for further 16 hours.
Then, 10 µl of 2 x 10⁻⁵ M[³H]thymidine (40 µCi/ml) was supplemented. After culturing for 3 hours, radioactivity incorporated into DNA fraction was measured. That is, after the medium was removed, cells were rinsed with 1 ml of PBS (phosphate-buffered saline) once and 3 times with 1 ml of cold 10% TCA (trichloroacetic acid). Then, 1 ml of 0.5 M NaOH was added thereto. […] Scintillator cocktail, 6 ml, was added thereto to measure the radioactivity.
Commercially available FGF (fibroblast growth factor) was charged in containers shown in Table 1, respectively, in 0.5 µg/ml PBS; the containers were charged with or without 0.1% CHAPS. After storing at 4°C for 2 days, FGF activity in each container was measured.

BALB/C3T3 fibroblasts = assay: Cytotoxicity of dispersants: DNA synthesis activity ([3H]thymidine incorporation) in cultured fibroblasts; format: cell-based, mouse; details: added to medium at 1 x 10⁻⁴ to 1 x 10⁻¹%, culture 19 hours; compared with NOG, SB12, Triton X-100, NP-40
Procedure: Upon culturing BALB/C3T3 fibroblasts in bovine serum-supplemented medium on a 24 well plate, CHAPS, NOG (1-O-n-octyl-β-D-glucopyranoside), SB12 (3-(dodecylmethylammonio)-1-propane sulfonate: sulfobetaine 12), Triton X-100 and NP-40 (Nonidet P-40) were added to the medium at concentrations of 1 x l0⁻⁴ to 1 x 10⁻¹%.
as §2
(§3) Then, 10 µl of 2 x 10⁻⁵ M[³H]thymidine (40 µCi/ml) was supplemented. After culturing for 3 hours, radioactivity incorporated into DNA fraction was measured. That is, after the medium was removed, cells were rinsed with 1 ml of PBS (phosphate-buffered saline) once and 3 times with 1 ml of cold 10% TCA (trichloroacetic acid). Then, 1 ml of 0.5 M NaOH was added thereto. After allowing to stand at room temperature for 15 minutes, the mixture was neutralized with 5 M HCl. Scintillator cocktail, 6 ml, was added thereto to measure the radioactivity.

[2] = Solubility in water and organic solvents; format: physicochemical
From the text: That is, CHAPS or CHAPSO can be removed by utilizing difference in solubility in organic solvents. CHAPS or CHAPSO is soluble in water, methanol and dimethylsulfoxide but insoluble in other solvents (acetone, acetonitrile, ether, chloroform, 2-methyl-1-propanol, N,N-dimethylformamide, isoamly alcohol, ethanol, hexane, xylene, petroleum ether, benzene, n-heptane, toluene). Utilizing the difference in solubility, CHAPS or CHAPSO can easily be removed.

[3] = Heparin-5PW HPLC of extract from BPH tissues with or without CHAPS (elution of FGF activity); format: physicochemical, human; details: Heparin-5PW HPLC of BPH tissue extract, 0.1% CHAPS versus no CHAPS
From the text: An extract from human benign prostatic hypertrophy (BPH) tissues was subjected to Heparin-5PW HPLC without adding any CHAPS thereto.
An extract from BPH tissues was subjected to Heparin-5PW HPLC in the presence of 0.1% CHAPS thereto.

BALB/C3T3 cells [4] = assay: Thermal stability of FGF at 50°C with or without CHAPS (FGF activity); format: physicochemical, mouse; details: FGF 5 µg/ml, 1% CHAPS, 50°C for 1 hour
Procedure: as §1, §2, §3
After commercially available FGF (5 µg/ml) added with 1% CHAPS or added with no CHAPS was allowed to stand at 50°C for 1 hour, stability of FGF was examined. […]

[5] = in other solvents (acetone, acetonitrile, ether, chloroform, 2-methyl-1-propanol, N,N-dimethylformamide, isoamyl alcohol, ethanol, hexane, xylene, petroleum ether, benzene, n-heptane, toluene)
[6] = in water, methanol and dimethylsulfoxide

| SMILES | adsorption of FGF onto the containers (BALB/C3T3 cells [1]) | cytotoxicity (DNA synthesis activity) (BALB/C3T3 fibroblasts) | solubility [2, 5] | solubility [2, 6] | adsorption of FGF onto carrier and device during chromatographies [3] | effect on thermal instability of FGF (BALB/C3T3 cells [4]) |
| --- | --- | --- | --- | --- | --- | --- |
| C[C@H](CCC(=O)NCCC[N+](C)(C)CCCS(=O)(=O)[O-])[C@H]1CC[C@H]2[C@@H]3[C@H](O)C[C@@H]4C[C@H](O)CC[C@]4(C)[C@H]3C[C@H](O)[C@]12C [CHAPS, 3-[(3-cholamidopropyl)dimethylammonio]-1-propane sulfonate] | effectively prevented | least cytotoxicity among various surface active agents | insoluble | soluble | prevents adsorption of FGF onto a carrier and device | stabilizing effect |
| C[C@H](CCC(=O)NCCC[N+](C)(C)CC(O)CS(=O)(=O)[O-])[C@H]1CC[C@H]2[C@@H]3[C@H](O)C[C@@H]4C[C@H](O)CC[C@]4(C)[C@H]3C[C@H](O)[C@]12C (some centres unmarked) [CHAPSO, 3-(3-cholamidopropyl)dimethylammonio]-2-hydroxy-1-propane sulfonate] | – | – | insoluble | soluble | – | – |

Reference: patent EP0382875A1, “Dispersant for biologically active peptide” (Matuo, Yuhsy, priority 1989, dated 1990)
